Our source for the IC50 values is patent US8530460B2, “Azetidine derivatives” (Boehringer Ingelheim International GmbH, priority 2011, dated 2013).

The target of this test is human ACC2 (Homo sapiens (Human), UniProt O00763). The test is described as follows: ACC2 assay (spectrophotometric 384 well assay, NADH-linked coupled lactate dehydrogenase/pyruvate kinase). The format is biochemical. On the procedure: Spectrophotometric 384 Well Assay
Malonyl CoA formation by acetyl CoA carboxylases is stoichometrically linked to the consumption of ATP. ACC2 activity is measured in a NADH-linked kinetic method measuring ADP generated during the ACC reaction using a coupled lactate dehydrogenase/pyruvate kinase reaction.
For biological testing, a human ACC2 construct which lacks the 128 amino acids at the N-terminus for increased solubility (nt 385-6966 in Genbank entry AJ575592) is cloned. The protein is then expressed in insect cells using a baculoviral expression system. Protein purification is performed by anion exchange.
All compounds are dissolved in dimethyl sulfoxide (DMSO) to a concentration of 10 mM.
Assay reactions are then carried out in 384-well plates, with hACC2 in an appropriate dilution and at final assay concentrations (f.c.) of 100 mM Tris (pH 7.5), 10 mM trisodium citrate, 25 mM KHCO3, 10 mM MgCl2, 0.5 mg/ml BSA, 3.75 mM reduced L-glutathione, 15 U/ml lactate dehydrogenase, 0.5 mM phosphoenolpyruvate, 15 U/ml pyruvate kinase, compounds at different concentrations at final DMSO concentrations of 1%.
The enzymatic reaction is then started by addition of a mixture of NADH, acetyl Coenzyme A (both 200 μM f.c.) and ATP (500 uM f.c.). The decrease of the optical density (slope S) is then determined at 25° C. at a wavelength of 340 nm over 15 minutes in a spectrophotometric reader.
Each assay microtiter plate contains wells with vehicle instead of compound as controls for the non-inhibited enzyme (100% CTL; ‘HIGH’) and wells without acetyl-CoA as controls for non-specific NADH degradation (0% CTL; ‘LOW’).
The slope S is used for calculation of % CTL=(S(compound)−S(‘LOW’))/(S(‘HIGH’)—S(‘LOW’))*100. Compounds will give values between 100% CTL (no inhibition) and 0% CTL (complete inhibition).
For IC50 value determination, the sample slope in the presence of the test compound after subtraction of the low controls (S(compound)−S(‘LOW’)) are used.
An IC50 value is derived from the compound slopes at different dosages after subtraction of the low controls (S(compound)−S(‘LOW’)) by non-linear regression curve fitting (equation y=(A+((B−A)/(1+((C/x)^D))))).

The mark [1] stands for this setting: hACC2 construct lacking 128 N-terminal amino acids, 25° C., 340 nm, 15 minutes.

Like-named read-outs stand apart in the source and are kept apart here.

Sequence of human ACC2 (O00763 129-2458): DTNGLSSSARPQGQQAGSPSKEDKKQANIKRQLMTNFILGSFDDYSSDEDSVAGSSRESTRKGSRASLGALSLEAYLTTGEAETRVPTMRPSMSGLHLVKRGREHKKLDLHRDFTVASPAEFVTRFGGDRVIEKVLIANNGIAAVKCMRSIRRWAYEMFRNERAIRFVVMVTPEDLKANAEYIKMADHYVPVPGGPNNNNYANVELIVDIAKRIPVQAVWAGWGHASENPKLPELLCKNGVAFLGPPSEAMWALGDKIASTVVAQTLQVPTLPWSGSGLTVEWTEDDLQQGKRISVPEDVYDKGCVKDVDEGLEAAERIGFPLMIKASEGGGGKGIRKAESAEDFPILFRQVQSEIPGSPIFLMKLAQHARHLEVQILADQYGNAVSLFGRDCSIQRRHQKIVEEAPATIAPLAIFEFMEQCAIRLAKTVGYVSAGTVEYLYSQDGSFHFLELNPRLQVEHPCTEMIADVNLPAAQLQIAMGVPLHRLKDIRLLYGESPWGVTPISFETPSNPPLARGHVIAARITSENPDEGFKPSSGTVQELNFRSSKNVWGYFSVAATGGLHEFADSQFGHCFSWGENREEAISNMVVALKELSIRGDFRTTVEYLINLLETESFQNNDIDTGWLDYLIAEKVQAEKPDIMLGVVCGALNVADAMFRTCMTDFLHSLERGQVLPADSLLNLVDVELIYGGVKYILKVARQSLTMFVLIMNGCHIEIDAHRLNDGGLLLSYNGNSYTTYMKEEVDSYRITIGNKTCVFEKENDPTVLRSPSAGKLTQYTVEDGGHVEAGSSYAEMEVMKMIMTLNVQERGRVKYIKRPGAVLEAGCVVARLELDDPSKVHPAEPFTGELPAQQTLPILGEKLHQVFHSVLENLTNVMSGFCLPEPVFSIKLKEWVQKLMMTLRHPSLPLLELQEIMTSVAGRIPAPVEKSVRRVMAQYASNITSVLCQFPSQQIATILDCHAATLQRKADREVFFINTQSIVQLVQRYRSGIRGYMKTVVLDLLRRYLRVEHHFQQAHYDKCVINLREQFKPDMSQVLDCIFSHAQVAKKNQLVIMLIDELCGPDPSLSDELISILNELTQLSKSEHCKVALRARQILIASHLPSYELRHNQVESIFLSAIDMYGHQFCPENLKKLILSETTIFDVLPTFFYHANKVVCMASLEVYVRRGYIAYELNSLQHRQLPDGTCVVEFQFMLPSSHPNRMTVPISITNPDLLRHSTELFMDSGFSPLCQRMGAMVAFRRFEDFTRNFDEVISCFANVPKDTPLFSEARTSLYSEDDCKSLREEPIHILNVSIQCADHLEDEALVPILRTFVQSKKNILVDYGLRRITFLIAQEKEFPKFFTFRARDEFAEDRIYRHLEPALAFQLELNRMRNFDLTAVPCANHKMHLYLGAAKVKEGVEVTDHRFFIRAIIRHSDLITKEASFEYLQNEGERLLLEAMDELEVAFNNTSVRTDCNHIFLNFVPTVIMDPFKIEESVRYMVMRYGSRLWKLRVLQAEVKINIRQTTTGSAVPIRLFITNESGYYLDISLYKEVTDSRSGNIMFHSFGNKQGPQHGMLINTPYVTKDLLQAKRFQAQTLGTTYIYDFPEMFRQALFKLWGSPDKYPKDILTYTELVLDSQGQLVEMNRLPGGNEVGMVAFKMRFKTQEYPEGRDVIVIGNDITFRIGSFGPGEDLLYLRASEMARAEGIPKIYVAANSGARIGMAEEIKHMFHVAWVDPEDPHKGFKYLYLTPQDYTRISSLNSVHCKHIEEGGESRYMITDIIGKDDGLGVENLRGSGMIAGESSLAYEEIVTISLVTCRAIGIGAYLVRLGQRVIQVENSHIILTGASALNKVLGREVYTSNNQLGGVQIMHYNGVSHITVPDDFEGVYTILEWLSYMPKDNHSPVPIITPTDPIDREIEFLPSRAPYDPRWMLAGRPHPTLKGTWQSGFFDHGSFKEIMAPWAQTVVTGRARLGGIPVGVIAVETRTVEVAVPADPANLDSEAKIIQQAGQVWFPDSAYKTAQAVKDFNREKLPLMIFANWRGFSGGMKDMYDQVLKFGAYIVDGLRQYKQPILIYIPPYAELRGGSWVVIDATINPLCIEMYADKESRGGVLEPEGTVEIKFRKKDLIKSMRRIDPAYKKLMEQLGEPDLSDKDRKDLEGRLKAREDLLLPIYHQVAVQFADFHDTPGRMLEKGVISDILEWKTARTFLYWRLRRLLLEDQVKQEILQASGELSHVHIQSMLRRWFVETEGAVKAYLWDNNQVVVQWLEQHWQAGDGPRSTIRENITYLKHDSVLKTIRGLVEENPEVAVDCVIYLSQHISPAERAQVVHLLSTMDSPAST

For the compound `CC(=O)N[C@@H](C)c1ccc(OC2CN(c3cc4c(cc3F)OCCCO4)C2)cc1` [Example 1.53], the IC50 under setting [1] came to 760 nM.

With `CC(=O)N[C@@H](C)c1ccc(OC2CN(c3ccc(OCC4CC4(F)F)cc3F)C2)cc1` (stereo partly shown) [Example 1.54], the midpoint of inhibition under setting [1], the IC50, lay at 40 nM.

Compound `CC(=O)N[C@@H](C)c1ccc(OC2CN(c3ccc(OC4CC4)cc3F)C2)cc1` [Example 1.55] had an IC50 under setting [1] of 110 nM.

With `CC(=O)N[C@@H](C)c1ccc(OC2CN(c3cccc(C(F)(F)F)c3)C2)cc1` [Example 1.56], the IC50 under setting [1] came to 150 nM.

`CC(=O)N[C@@H](C)c1ccc(OC2CN(c3cc4c(cc3F)OCCO4)C2)cc1` [Example 1.57] displayed an IC50 under setting [1] of 740 nM.

Consider `CCOc1ccc(N2CC(Oc3ccc([C@H](C)NC(C)=O)cc3)C2)c(C#N)n1` [Example 1.58], for which half-maximal inhibition under setting [1] (IC50) required 1390 nM.

Consider `CCCOc1ccc(N2CC(Oc3ccc([C@H](C)NC(C)=O)cc3)C2)c(C#N)n1` [Example 1.59], for which the midpoint of inhibition under setting [1], the IC50, lay at 300 nM.

For the compound `CC(=O)N[C@@H](C)c1ccc(OC2CN(c3ccc(OCC4CC4)nc3C#N)C2)cc1` [Example 1.60], under setting [1], inhibition was half-maximal at 650 nM (IC50).

With `COc1cc(OCC2CC2(F)F)ccc1N1CC(Oc2ccc([C@H](C)NC(C)=O)cc2)C1` (stereo partly shown) [Example 1.61], half-maximal inhibition under setting [1] (IC50) required 2540 nM.

With `CCOc1cc(N2CC(Oc3ccc([C@H](C)NC(C)=O)cc3)C2)c(F)cn1` [Example 1.62], it took 2910 nM to reach half-maximal inhibition under setting [1] (IC50).

`CC(=O)N[C@@H](C)c1ccc(OC2CN(c3ccc(OCC4CC4)nc3)C2)cc1` [Example 2.1, (S)—N-(1-(4-(1-(6-(Cyclopropylmethoxy)Pyridin-3-yl)azetidin-3-yloxy)phenyl)ethyl)-acetamide] had a half-inhibitory concentration (IC50) of 880 nM.

With `CC(=O)N[C@@H](C)c1ccc(OC2CN(c3ccc(OCC4CC4)cc3F)C2)cc1` [Example 2.2], inhibition under setting [1] was half-maximal at 60 nM (IC50).

`CCOc1ccc(N2CC(Oc3ccc([C@H](C)NC(C)=O)cc3)C2)c(F)c1` [Example 2.3] showed an IC50 under setting [1] of 240 nM.

The compound `CC(=O)N[C@@H](C)c1ccc(OC2CN(c3ccc(OC4CC4)cc3OC3CC3)C2)cc1` [Example 2.4] came in with an IC50 under setting [1] of 6140 nM.

Compound `CCCOc1ccc(N2CC(Oc3ccc([C@H](C)NC(C)=O)cc3)C2)c(C)c1` [Example 2.5] returned an IC50 under setting [1] of 170 nM.

`CCCOc1ccc(N2CC(Oc3ccc([C@H](C)NC(C)=O)cc3)C2)c(Cl)c1` [Example 2.6] came in with an IC50 under setting [1] of 90 nM.

`CC(=O)N[C@@H](C)c1ccc(OC2CN(c3ccnc(OC(C)C)c3)C2)cc1` [Example 2.7] registered an IC50 under setting [1] of 2060 nM.

As to `CC(=O)N[C@@H](C)c1ccc(OC2CN(c3ccnc(Oc4ccccc4)c3)C2)cc1` [Example 2.8], it took 4100 nM to reach half-maximal inhibition under setting [1] (IC50).

Compound `CC(=O)N[C@@H](C)c1ccc(OC2CN(c3ccnc(Oc4cncnc4)c3)C2)cc1` [Example 2.9] yielded an IC50 under setting [1] of 10600 nM.

In turn, `CCOc1ccc(N2CC(Oc3ccc([C@H](C)NC(=O)C4CC4)cc3)C2)cc1` [Example 2.10] came in with an IC50 under setting [1] of 140 nM.

Under setting [1], `CCCOc1ccnc(N2CC(Oc3ccc([C@H](C)NC(C)=O)cc3)C2)c1` [Example 2.12] registered an IC50 of 4500 nM.

Under setting [1], `CC(=O)N[C@@H](C)c1ccc(OC2CN(c3ncc(Br)cn3)C2)cc1` [Example 3.1, (S)—N-(1-(4-(1-(5-bromopyrimidin-2-yl)azetidin-3-yloxy)phenyl)ethyl)acetamide] yielded an IC50 of 210 nM.

Take `COc1cnc(N2CC(Oc3ccc([C@H](C)NC(C)=O)cc3)C2)nc1` [Example 3.2]: the 50% inhibitory concentration (IC50) under setting [1] was determined as 1120 nM.

`CCCc1cnc(N2CC(Oc3ccc(C(C)NC(C)=O)cc3)C2)nc1` (stereo not shown) [Example 3.3] yielded an IC50 under setting [1] of 320 nM.

Consider `COc1ccc(-c2cnc(N3CC(Oc4ccc(C(C)NC(C)=O)cc4)C3)nc2)cc1` (stereo not shown) [Example 3.4], for which, under setting [1], the concentration for half-maximal inhibition (IC50) came to 1470 nM.

On to `C[C@H](NC(=O)C1CC1)c1ccc(OC2CN(c3ncc(C4CC4)cn3)C2)cc1` [Example 3.5], for which inhibition under setting [1] was half-maximal at 200 nM (IC50).

Take `C[C@H](NC(=O)C1CC1)c1ccc(OC2CN(c3ncc(Br)cn3)C2)cc1` [Example 3.6]: the IC50 under setting [1] came to 3880 nM.

For `C[C@H](NC(=O)N(C)C)c1ccc(OC2CN(c3ncc(Br)cn3)C2)cc1` [Example 3.7], the IC50 under setting [1] stood at 470 nM.

For orientation: IC50 means the midpoint of a concentration-inhibition curve. Low readings indicate greater potency, high ones weaker potency.
